Patent publication US20150031668A1, “CHROMAN DERIVATIVES AS TRPM8 INHIBITORS” (AMGEN INC., priority 2013, published 2015)
Where a name gives a salt, the structure may show the parent alone.

Molecular target: T1, human TRPM8 (Homo sapiens, UniProt Q7Z2W7)
T1 construct: expressed in transfected cells; host or cells: Chinese hamster ovary (CHO) cells, T-REx tetracycline-inducible expression system (Invitrogen); co-transfected with pcDNA3.1 aequorin
Experiment: Luminescence readout assay for measuring intracellular calcium (aequorin, CHO cells expressing human TRPM8; icilin, L-menthol or cold activation)
Assay type: cell-based
Settings: CHO cells expressing human TRPM8, icilin activation (1 μM), aequorin luminescence; read-out: hTRPM8 IC50
How it was run: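 Activation was by 1 μM icilin, 100 μM L-menthol (test compound 2.5 min ahead) or cold buffer below 10° C (compound 1 min ahead). Calcium rise measured as aequorin luminescence in CHO cells with tetracycline-inducible human TRPM8.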

T1 sequence (Q7Z2W7 whole entry): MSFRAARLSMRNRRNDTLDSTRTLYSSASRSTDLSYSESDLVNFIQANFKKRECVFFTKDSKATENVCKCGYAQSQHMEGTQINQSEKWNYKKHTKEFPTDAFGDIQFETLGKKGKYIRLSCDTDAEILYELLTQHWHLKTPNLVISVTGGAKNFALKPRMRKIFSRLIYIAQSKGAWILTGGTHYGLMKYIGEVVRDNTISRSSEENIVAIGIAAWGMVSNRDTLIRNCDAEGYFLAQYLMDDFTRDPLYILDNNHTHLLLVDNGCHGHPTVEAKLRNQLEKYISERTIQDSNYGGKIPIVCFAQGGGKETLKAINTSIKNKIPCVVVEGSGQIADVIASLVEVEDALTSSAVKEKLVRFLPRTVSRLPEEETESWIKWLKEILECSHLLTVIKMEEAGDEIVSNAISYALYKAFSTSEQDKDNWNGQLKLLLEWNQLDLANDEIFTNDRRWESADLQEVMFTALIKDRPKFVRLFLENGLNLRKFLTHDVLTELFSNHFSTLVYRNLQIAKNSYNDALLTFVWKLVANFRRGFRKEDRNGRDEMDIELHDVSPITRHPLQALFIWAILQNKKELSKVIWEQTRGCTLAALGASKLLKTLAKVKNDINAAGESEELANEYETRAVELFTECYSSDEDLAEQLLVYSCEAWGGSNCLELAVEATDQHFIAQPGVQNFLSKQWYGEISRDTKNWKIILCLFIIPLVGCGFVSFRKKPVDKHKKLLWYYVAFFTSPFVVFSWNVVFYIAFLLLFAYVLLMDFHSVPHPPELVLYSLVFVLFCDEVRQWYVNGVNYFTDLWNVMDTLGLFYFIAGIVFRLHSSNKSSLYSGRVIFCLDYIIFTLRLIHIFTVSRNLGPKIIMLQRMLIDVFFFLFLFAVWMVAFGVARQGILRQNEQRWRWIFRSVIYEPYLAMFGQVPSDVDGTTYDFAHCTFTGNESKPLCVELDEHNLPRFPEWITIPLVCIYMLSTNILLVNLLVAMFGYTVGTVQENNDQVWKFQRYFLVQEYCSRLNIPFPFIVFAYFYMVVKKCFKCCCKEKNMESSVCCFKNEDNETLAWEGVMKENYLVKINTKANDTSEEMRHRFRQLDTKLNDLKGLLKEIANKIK

Compound	IC50
O=C(N[C@]1(c2ccc(OC(F)(F)F)c(F)c2)CCOc2cccnc21)N1CCC(O)CC1 [Example 102, (S)-N-(4-(3-fluoro-4-(trifluoromethoxy)phenyl)-3,4-dihydro-2H-pyrano[3,2-b]pyridin-4-yl)-4-hydroxypiperidine-1-carboxamide]	218 nM
COC(=O)c1cccc(NC(=O)N[C@]2(c3ccc(OC(F)(F)F)c(F)c3)CCOc3cccnc32)c1 [Example 91, (S)-methyl 3-(3-(4-(3-fluoro-4-(trifluoromethoxy)phenyl)-3,4-dihydro-2H-pyrano[3,2-b]pyridin-4-yl)ureido)benzoate]	19 nM
O=C(N[C@]1(c2ccc(F)cc2)CCOc2cccnc21)c1ccccc1 (single isomer, unassigned) [Example 16]	357 nM
COC(=O)c1ccc(C(=O)N[C@]2(c3ccc(C(F)(F)F)c(F)c3)CCOc3cccnc32)nc1 [Example 172, (S)-methyl 6-((4-(3-fluoro-4-(trifluoromethyl)phenyl)-3,4-dihydro-2H-pyrano[3,2-b]pyridin-4-yl)carbamoyl) nicotinate]	22 nM
O=C(O)c1cccc(C(=O)N[C@]2(c3ccc(OC(F)(F)F)c(F)c3)CCOc3cccnc32)c1 [Example 178, (S)-3-((4-(3-fluoro-4-(trifluoromethoxy)phenyl)-3,4-dihydro-2H-pyrano[3,2-b]pyridin-4-yl)carbamoyl) benzoic acid]	72 nM
O=C(N[C@]1(c2ccc(OC(F)(F)F)c(F)c2)CCOc2cccnc21)c1ccc(C(=O)O)c(F)c1 [Example 331, (S)-2-fluoro-4-((4-(3-fluoro-4-(trifluoromethoxy)phenyl)-3,4-dihydro-2H-pyrano[3,2-b]pyridin-4-yl)carbamoyl) benzoic acid]	34 nM
COc1cc2cc(C(=O)N[C@]3(c4ccc(OC(F)(F)F)cc4)CCOc4cccnc43)[nH]c2cn1 [Example 274, (S)-5-methoxy-N-(4-(4-(trifluoromethoxy)phenyl)-3,4-dihydro-2H-pyrano[3,2-b]pyridin-4-yl)-1H-pyrrolo[2,3-c] pyridine-2-carboxamide formate]	189 nM
O=C(N[C@]1(c2ccc(OC(F)(F)F)c(F)c2)CCOc2cccnc21)c1cnsc1 [Example 190, (S)-N-(4-(3-fluoro-4-(trifluoromethoxy)phenyl)-3,4-dihydro-2H-pyrano[3,2-b]pyridin-4-yl) isothiazole-4-carboxamide]	152 nM
COC(=O)c1cccc(C(=O)N[C@]2(c3ccc(OC(F)(F)F)c(F)c3)CCOc3cccnc32)c1 [Example 280, (S)-methyl 3-((4-(3-fluoro-4-(trifluoromethoxy)phenyl)-3,4-dihydro-2H-pyrano[3,2-b]pyridin-4-yl)carbamoyl) benzoate]	26 nM
COc1ncc(-c2ccc([C@@]3(NC(=O)c4ccc(F)cc4)CCOc4cccnc43)cc2)c(OC)n1 [Example 149, (S)-N-(4-(4-(2,4-dimethoxypyrimidin-5-yl)phenyl)-3,4-dihydro-2H-pyrano[3,2-b]pyridin-4-yl)-4-fluorobenzamide]	299 nM
O=C(O)c1ccnc(C(=O)N[C@]2(c3ccc(OC(F)(F)F)c(F)c3)CCOc3cccnc32)c1 [Example 330, (S)-2-((4-(3-fluoro-4-(trifluoro-methoxy)phenyl)-3,4-dihydro-2H-pyrano[3,2-b]pyridin-4-yl)carbamoyl) isonicotinic acid]	94 nM
O=C(Nc1ccc(F)cc1)N[C@]1(c2ccc(C(F)(F)F)cc2)CCOc2cccnc21 [Example 74, (S)-1-(4-fluorophenyl)-3-(4-(4-(trifluoromethyl)phenyl)-3,4-dihydro-2H-pyrano[3,2-b]pyridin-4-yl)urea]	25 nM
O=C(N[C@]1(c2ccc(OC(F)(F)F)cc2)CCOc2cccnc21)c1cc2n(n1)CCCO2 [Example 220, (S)-N-(4-(4-(trifluoromethoxy)phenyl)-3,4-dihydro-2H-pyrano[3,2-b]pyridin-4-yl)-6,7-dihydro-5H-pyrazolo[5,1-b] [1,3]oxazine-2-carboxamide formate]	16 nM
Cc1ccc2[nH]c(C(=O)N[C@]3(c4ccc(OC(F)(F)F)cc4)CCOc4cccnc43)cc2c1 [Example 222, (S)-5-methyl-N-(4-(4-(trifluoromethoxy)phenyl)-3,4-dihydro-2H-pyrano[3,2-b]pyridin-4-yl)-1H-indole-2-carboxamide formate]	2000 nM
Cc1cc(C(=O)N[C@]2(c3ccc(OC(F)(F)F)c(F)c3)CCOc3cccnc32)ncc1Br [Example 166, (S)-5-bromo-N-(4-(3-fluoro-4-(trifluoromethoxy)phenyl)-3,4-dihydro-2H-pyrano[3,2-b]pyridin-4-yl)-4-methylpicolin amide]	10 nM
O=C(N[C@]1(c2ccc(OC(F)(F)F)c(F)c2)CCOc2cccnc21)c1ccc(-c2ncon2)cn1 [Example 282, (S)—N-(4-(3-fluoro-4-(trifluoromethoxy)phenyl)-3,4-dihydro-2H-pyrano[3,2-b]pyridin-4-yl)-5-(1,2,4-oxadiazol-3-yl)picolinamide]	7 nM
O=C(Nc1ccccc1C(=O)O)N[C@]1(c2ccc(OC(F)(F)F)c(F)c2)CCOc2cccnc21 [Example 106, (S)-2-(3-(4-(3-fluoro-4-(trifluoromethoxy)phenyl)-3,4-dihydro-2H-pyrano[3,2-b]pyridin-4-yl)ureido)benzoic acid]	39 nM
O=C(NC1(c2ccccc2)CCOc2cccnc21)c1ccc(F)cc1 (stereo not drawn) [Example 11, 4-fluoro-N-(4-phenyl-3,4-dihydro-2H-pyrano[3,2-b]pyridin-4-yl)benzamide]	2570 nM
COC(=O)c1ccc(C(=O)N[C@]2(c3ccc(OC(F)(F)F)c(F)c3)CCOc3cccnc32)n1C [Example 305, (S)-methyl 5-((4-(3-fluoro-4-(trifluoromethoxy)phenyl)-3,4-dihydro-2H-pyrano[3,2-b]pyridin-4-yl)carbamoyl)-1-methyl-1H-pyrrole-2-carboxylate]	15 nM

Continued by falling IC50, values first:

IC50	Compound
2310 nM	O=C(N[C@]1(c2ccc(OC(F)(F)F)cc2)CCOc2cccnc21)c1ncc[nH]1 [Example 210, (S)-N-(4-(4-(trifluoromethoxy)phenyl)-3,4-dihydro-2H-pyrano[3,2-b]pyridin-4-yl)-1H-imidazole-2-carboxamide formate]
1560 nM	O=C(N[C@]1(c2ccc(OC(F)(F)F)c(F)c2)CCOc2cccnc21)c1ccc(C(=O)O)nc1 [Example 328, (S)-5-((4-(3-fluoro-4-(trifluoro-methoxy)phenyl)-3,4-dihydro-2H-pyrano[3,2-b]pyridin-4-yl)carbamoyl) picolinic acid 2,2,2-trifluoroacetate]
584 nM	COC(=O)c1ccn(CC(=O)N[C@]2(c3ccc(OC(F)(F)F)c(F)c3)CCOc3cccnc32)c1 [Example 193, (S)-melhyl 1-(2-((4-(3-fluoro-4-(trifluoromethoxy)phenyl)-3,4-dihydro-2H-pyrano[3,2-b]pyridin-4-yl)amino)-2-oxoethyl)-1H-pyrrole-3-carboxylate]
293 nM	C[C@H](NC(=O)N[C@]1(c2ccc(C(F)(F)F)cc2)CCOc2cccnc21)C(F)(F)F [Example 67, 1-((S)-4-(4-(trifluoromethyl)phenyl)-3,4-dihydro-2H-pyrano[3,2-b]pyridin-4-yl)-3-((S)-1,1,1-trifluoropropan-2-yl)urea 2,2,2-trifluoroacetate]
269 nM	O=C(N[C@]1(c2ccc(C(F)(F)F)cc2)CCOc2cccnc21)c1cncs1 [Example 39, (S)-N-(4-(4-(trifluoromethyl)phenyl)-3,4-dihydro-2H-pyrano[3,2-b]pyridin-4-yl)thiazole-5-carboxamide]
125 nM	O=C(N[C@]1(c2ccc(C(F)(F)F)cc2)CCOc2cccnc21)c1ccc(=O)[nH]c1 [Example 60, (S)-6-oxo-N-(4-(4-(trifluoromethyl)phenyl)-3,4-dihydro-2H-pyrano[3,2-b]pyridin-4-yl)-1,6-dihydropyridine-3-carboxamide]
95 nM	Cn1ncc2ccc(C(=O)N[C@]3(c4ccc(OC(F)(F)F)cc4)CCOc4cccnc43)cc21 [Example 263, (S)-1-methyl-N-(4-(4-(trifluoromethoxy)phenyl)-3,4-dihydro-2H-pyrano[3,2-b]pyridin-4-yl)-1H-indazole-6-carboxamide formate]
86 nM	O=C(N[C@]1(c2ccc(C(F)(F)F)cc2)CCOc2cccnc21)c1ccc(F)cc1 (single isomer, unassigned) [Example 2]
75 nM	O=C(NC1(c2ccc(OC(F)(F)F)cc2)CCOc2cccnc21)c1ccc(F)cc1 (stereo not drawn) [Example 8, 4-fluoro-N-(4-(4-(trifluoromethoxy)phenyl)-3,4-dihydro-2H-pyrano[3,2-b]pyridin-4-yl)benzamide]
74 nM	Cn1cc2c(C(=O)N[C@]3(c4ccc(OC(F)(F)F)cc4)CCOc4cccnc43)cccc2n1 [Example 264, (S)-2-methyl-N-(4-(4-(trifluoromethoxy)phenyl)-3,4-dihydro-2H-pyrano[3,2-b]pyridin-4-yl)-2H-indazole-4-carboxamide formate]
70 nM	COc1cc(C(=O)N[C@]2(c3ccc(OC(F)(F)F)c(F)c3)CCOc3cccnc32)ccc1C(=O)O [Example 337, (S)-4-((4-(3-fluoro-4-(trifluoromethoxy)phenyl)-3,4-dihydro-2H-pyrano[3,2-b]pyridin-4-yl)carbamoyl)-2-methoxybenzoic acid]
10 nM	O=C(N[C@]1(c2ccc(C(F)(F)F)cc2)CCOc2cccnc21)c1ccc2[nH]c(=O)oc2c1 (single isomer, unassigned) [Example 20]
9 nM	O=C(N[C@]1(c2ccc(C(F)(F)F)cc2)CCOc2cccnc21)c1ccc(O)cc1 (single isomer, unassigned) [Example 4]
6 nM	NC(=O)c1ccc(C(=O)N[C@]2(c3ccc(OC(F)(F)F)c(F)c3)CCOc3cccnc32)cc1 [Example 195, (S)-N1-(4-(3-fluoro-4-(trifluoromethoxy)phenyl)-3,4-dihydro-2H-pyrano[3,2-b]pyridin-4-yl) terephthalamide 2,2,2-trifluoroacetate]
